The values below come from PMC7587356, “High-Throughput Screening for Inhibitors of the SARS-CoV-2 Protease Using a FRET-Biosensor” (Molecules, 2020).

Like-named read-outs stand apart in the source and are kept apart here.

Assay [1] concerns the target T1, SARS-CoV-2 3CLpro (Severe acute respiratory syndrome coronavirus 2, UniProt P0DTD1). Briefly: biochemical. Format: biochemical.
The target in assay [2] is T1, SARS-CoV-2 3CLpro. As to the kind of experiment: biochemical. Format: biochemical. The following applies: for mean / Replicate_1 / Replicate_2: sheet LOPAC_screen_w_protease; for inhibition at 5 µM: 4 h. On the set-up: Replicate_1 / Replicate_2 / mean / mean (LOPAC_screen_w_protease): unit not given here.
Setting [3] is: with 0.01% Triton X-100; mean ± SD of triplicate; 4 h, 30 °C; read-out: A) EC50 with Triton X-100.
Setting [4] is: without Triton X-100; mean ± SD of triplicate; 4 h, 30 °C; read-out: B) EC50 without Triton X-100.
Where [5] appears, read: with 0.01% Triton X-100, read-out: EC50.
Setting [6] is: EC50 with Triton X-100 / EC50 without Triton X-100, ratio greater than 2 suggests aggregation-based inhibitor.
Where [7] appears, read: LOPAC1280 at 5 µM, mean of two replicates.
The mark [8] stands for this setting: LOPAC1280 primary screen with protease, 5 µM compound, mean of the two replicates.

The term EC50 denotes the midpoint of the concentration-response curve. In the case of `Oc1cc2c(cc1O)[C@H]1c3ccccc3CN[C@@H]1CC2` (racemic) [Dihydrexidine], the “Ratio (A/B)” value at SARS-CoV-2 3CLpro [1] is listed as 1.1. In addition, the concentration for a half-maximal effect (EC50) on SARS-CoV-2 3CLpro [1] (setting [3]) came to 705 ± 153 nM; on SARS-CoV-2 3CLpro [1] (setting [4]), 622 ± 72 nM.

With `Cc1ccc(S(=O)(=O)N[C@@H](Cc2ccccc2)C(=O)CCl)cc1` [TPCK, Tosyl-L-Phe chloromethyl ketone], the “Ratio (A/B)” value on SARS-CoV-2 3CLpro [1] was 1.8. The EC50 came to 1740 ± 34 nM on SARS-CoV-2 3CLpro [1] (setting [3]), 1740 nM at SARS-CoV-2 3CLpro [1] (setting [5]) and 985 ± 175 nM on SARS-CoV-2 3CLpro [1] (setting [4]).

On to R(−)-Propylnorapomorphine [R(−)-NPA], for which the “Ratio (A/B)” value on SARS-CoV-2 3CLpro [1] is recorded as 1.0. Also, the values for the 50% effective concentration (EC50) on SARS-CoV-2 3CLpro [1] (setting [3]) and on SARS-CoV-2 3CLpro [1] (setting [4]) were 426 ± 17 nM and 426 ± 77 nM, respectively.

In the case of `CCN(CC)C(=S)SSC(=S)N(CC)CC` [Disulfiram], the “reduction in levels of inhibition upon addition of 0.01% Triton X-100” value on SARS-CoV-2 3CLpro [1] (with vs without 0.01% Triton X-100) was greater than 2 fold.

Consider `N=C(N)NCCSSCCNC(=N)N` [GED], for which the “Ratio (A/B)” value on SARS-CoV-2 3CLpro [1] (setting [6]) is given as 1.6. For the same compound, the EC50 stood at 5830 ± 664 nM on SARS-CoV-2 3CLpro [1] (setting [3]) and 3640 ± 2430 nM on SARS-CoV-2 3CLpro [1] (setting [4]).

`Oc1ccc2c3c1O[C@H]1c4[nH]c5c(c4C[C@@]4(O)[C@@H](C2)N(CC2CC2)CC[C@]314)C[C@@]1(O)[C@H]2Cc3ccc(O)c4c3[C@@]1(CCN2CC1CC1)[C@H]5O4` [nor-Binaltorphimine]: the “Ratio (A/B)” value at SARS-CoV-2 3CLpro [1] (setting [6]) worked out at 2.0. Also, the EC50 at SARS-CoV-2 3CLpro [1] (setting [3]) turned out to be 5200 ± 1160 nM; on SARS-CoV-2 3CLpro [1] (setting [4]), 2600 ± 1490 nM.

`O=C(N[C@@H](Cc1ccccc1)C(=O)CCl)OCc1ccccc1` [ZPCK, Z-L-Phe chloromethyl ketone]: the “Ratio (A/B)” value at SARS-CoV-2 3CLpro [1] was found to be 1.7. Besides, the EC50 on SARS-CoV-2 3CLpro [1] (setting [3]) stood at 234 ± 85 nM; at SARS-CoV-2 3CLpro [1] (setting [5]) it was 230 nM; at SARS-CoV-2 3CLpro [1] (setting [4]), 136 ± 21 nM.

`O=C(O)/C=C/c1ccc(O)c(O)c1` [Caffeic Acid]: the EC50 was greater than 20000 nM at SARS-CoV-2 3CLpro [1] (A) EC50 with Triton X-100) and 5390 ± 1230 nM on SARS-CoV-2 3CLpro [1] (B) EC50 without Triton X-100).

As to `C[n+]1cc2c3c(ccc2c2ccc4cc5c(cc4c21)OCO5)OCO3` [Sanguinarine], the “Ratio (A/B)” value at SARS-CoV-2 3CLpro [1] was determined as 0.8. For the same compound, the values for the EC50 at SARS-CoV-2 3CLpro [1] (setting [3]) and on SARS-CoV-2 3CLpro [1] (setting [4]) were 1780 ± 497 nM and 2240 ± 586 nM, respectively.

`CN(CCOc1ccc(C[C@H](Nc2ccccc2C(=O)c2ccccc2)C(=O)O)cc1)c1ccccn1` [GW1929] yielded a mean on SARS-CoV-2 3CLpro [2] (setting [7]) of 1.294. In addition, the Replicate_1 on SARS-CoV-2 3CLpro [2] (LOPAC1280 at 5 µM, replicate 1) was 1.2073. Also, at SARS-CoV-2 3CLpro [2] (LOPAC1280 at 5 µM, replicate 2), the Replicate_2 came out at 1.38.

`CNC(=O)c1cc2c(cn1)[nH]c1ccccc12` [N-Methyl-beta-carboline-3-carboxamide] had a mean on SARS-CoV-2 3CLpro [2] (setting [7]) of 1.084. Besides, the Replicate_1 at SARS-CoV-2 3CLpro [2] (LOPAC1280 at 5 µM, replicate 1) is 1.698. On SARS-CoV-2 3CLpro [2] (LOPAC1280 at 5 µM, replicate 2), this compound came in with a Replicate_2 of 0.4701.

Regarding `CCC1(C)CC(=O)NC1=O` (stereo not shown) [Ethosuximide], the inhibition at 5 µM was 4.21% on SARS-CoV-2 3CLpro [2] (LOPAC1280 primary screen with protease, 5 µM compound, replicate 1, read-out: Replicate_1 (LOPAC_screen_w_protease)) and -0.21% on SARS-CoV-2 3CLpro [2] (LOPAC1280 primary screen with protease, 5 µM compound, replicate 2, read-out: Replicate_2 (LOPAC_screen_w_protease)). At SARS-CoV-2 3CLpro [2] (setting [8]), the “mean (LOPAC_screen_w_protease)” value was 1.998.

Consider `COc1ccc2c(c1OC)C(=O)O[C@@H]2[C@H]1c2c(cc3c(c2OC)OCO3)CCN1C.Cl` [Noscapine hydrchloride], for which the “mean (LOPAC_screen_w_protease)” value on SARS-CoV-2 3CLpro [2] (setting [8]) is given as 1.752. For the same compound, the “Replicate_1 (LOPAC_screen_w_protease)” value at SARS-CoV-2 3CLpro [2] (LOPAC1280 primary screen with protease, 5 µM compound, replicate 1) stood at 0.9869.

Take `N#CC(=C(/N)Sc1ccccc1N)/C(C#N)=C(/N)Sc1ccccc1N` [U0126]: the mean at SARS-CoV-2 3CLpro [2] (primary screen with protease, compound at 5 µM, mean of two replicates) stood at 2.655. At SARS-CoV-2 3CLpro [2] (primary screen with protease, compound at 5 µM, replicate 1), this compound came in with a Replicate_1 of 2.394. Further, the Replicate_2 at SARS-CoV-2 3CLpro [2] (primary screen with protease, compound at 5 µM, replicate 2) is on record as 2.916.

Compound `CCCCCCC(C(C)O)n1cnc2c(N)ncnc21.Cl` (stereo not shown) returned a mean at SARS-CoV-2 3CLpro [2] (primary screen of LOPAC1280 at 5 µM with protease, mean of the two replicates) of 3.427. At SARS-CoV-2 3CLpro [2] (primary screen of LOPAC1280 at 5 µM with protease, replicate 1), this compound yielded a Replicate_1 of 4.751. Moreover, at SARS-CoV-2 3CLpro [2] (primary screen of LOPAC1280 at 5 µM with protease, replicate 2), the Replicate_2 is 2.103.

In turn, `COC(=O)c1c(C)[nH]c(C)c1C(=O)c1ccccc1Cc1ccccc1` [FPL 64176] gave a mean at SARS-CoV-2 3CLpro [2] (primary screen with protease, 5 µM, mean of two replicates) of 0.1984. Besides, at SARS-CoV-2 3CLpro [2] (primary screen with protease, 5 µM, replicate 1), the Replicate_1 was 1.679. Moreover, on SARS-CoV-2 3CLpro [2] (primary screen with protease, 5 µM, replicate 2), the Replicate_2 is recorded as -1.282.
